Results: ChEMBL document CHEMBL4819154, “Discovery of quinuclidine modulators of cellular progranulin” (Bioorg Med Chem Lett, 2021)
In brackets after ≈: the same amount, converted by molar mass.

Assays:
[1] = Increase of PGRN level in mouse microglial BV-2 cell relative to control; assay type: functional
[2] = Protein binding in rat assessed as unbound fraction; assay type: ADME
[3] = Protein binding in mouse brain assessed as unbound fraction; assay type: ADME, tissue-based
[4] = Half life in po dosed mouse; assay type: ADME, organism-based; details: in vivo
[5] = Apparent permeability from apical to basolateral side in dog MDCK-MDR1 cells; assay type: ADME, cell-based, Canis lupus familiaris
[6] = Intrinsic clearance in cynomolgus monkey hepatocytes; assay type: ADME, cell-based, Macaca fascicularis, Hepatocyte
[7] = Protein binding in mouse assessed as unbound fraction; assay type: ADME
[8] = Clearance in mouse; assay type: ADME, organism-based; details: in vivo
[9] = Half life in iv dosed rat; assay type: ADME, organism-based; details: in vivo
[10] = Aqueous solubility of compound in pH 7.4 PBS measured; assay type: physicochemical
[11] = Volume of distribution at steady state in mouse; assay type: ADME, organism-based; details: in vivo, read-out: Vdss
[12] = Volume of distribution at steady state in rat; assay type: ADME; details: in vivo, read-out: Vdss
[13] = Intrinsic clearance in human hepatocytes; assay type: ADME, cell-based, Hepatocyte
[14] = Half life in cynomolgus monkey hepatocytes; assay type: ADME, cell-based, Macaca fascicularis, Hepatocyte
[15] = target: Muscarinic acetylcholine receptor M3 (Homo sapiens, UniProt P20309); experiment: Antagonist activity at muscarinic M3 receptor (unknown origin)
[16] = Unbound partition coefficient of the compound in mouse incubated for 8 hrs; assay type: ADME; details: brain, read-out: K(p,uu,brain)
[17] = Protein binding in rat brain assessed as unbound fraction; assay type: ADME, tissue-based
[18] = Clearance in rat; assay type: ADME; details: in vivo
[19] = Protein binding in human assessed as unbound fraction; assay type: ADME
[20] = Oral bioavailability in mouse; assay type: ADME, organism-based; details: in vivo, dose 10 mg/kg
[21] = Half life in iv dosed mouse; assay type: ADME, organism-based; details: in vivo
[22] = Oral bioavailability in rat; assay type: ADME, organism-based; details: in vivo, dose 10 mg/kg
[23] = Half life in rat hepatocytes; assay type: ADME, cell-based, Hepatocyte
[24] = Cmax in rat; assay type: ADME; details: in vivo
[25] = Half life in human hepatocytes; assay type: ADME, cell-based, Hepatocyte
[26] = Half life in po dosed rat; assay type: ADME, organism-based; details: in vivo
[27] = Cmax in mouse; assay type: ADME, organism-based; details: in vivo
[28] = Unbound partition coefficient of the compound in rat incubated for 8 hrs; assay type: ADME; details: brain, read-out: K(p,uu,brain)
[29] = Cmax in cynomolgus monkey; assay type: ADME, Macaca fascicularis; details: in vivo
[30] = Volume of distribution at steady state in cynomolgus monkey; assay type: ADME, Macaca fascicularis; details: in vivo, read-out: Vdss
[31] = Unbound partition coefficient of the compound in cynomolgus monkey incubated for 8 hrs; assay type: ADME, cell-free, Macaca fascicularis, Brain/Plasma; details: brain, read-out: K(p,uu,brain)
[32] = Oral bioavailability in cynomolgus monkey; assay type: ADME, organism-based, Macaca fascicularis; details: in vivo, dose 10 mg/kg
[33] = Clearance in cynomolgus monkey; assay type: ADME, Macaca fascicularis; details: in vivo, dose 1 mg/kg
[34] = Half life in po dosed cynomolgus monkey; assay type: ADME, organism-based, Macaca fascicularis; details: in vivo
[35] = Half life in iv dosed cynomolgus monkey; assay type: ADME, organism-based, Macaca fascicularis; details: in vivo
[36] = Protein binding in cynomolgus monkey assessed as unbound fraction; assay type: ADME, Macaca fascicularis

Sequence of Muscarinic acetylcholine receptor M3 (P20309 whole entry): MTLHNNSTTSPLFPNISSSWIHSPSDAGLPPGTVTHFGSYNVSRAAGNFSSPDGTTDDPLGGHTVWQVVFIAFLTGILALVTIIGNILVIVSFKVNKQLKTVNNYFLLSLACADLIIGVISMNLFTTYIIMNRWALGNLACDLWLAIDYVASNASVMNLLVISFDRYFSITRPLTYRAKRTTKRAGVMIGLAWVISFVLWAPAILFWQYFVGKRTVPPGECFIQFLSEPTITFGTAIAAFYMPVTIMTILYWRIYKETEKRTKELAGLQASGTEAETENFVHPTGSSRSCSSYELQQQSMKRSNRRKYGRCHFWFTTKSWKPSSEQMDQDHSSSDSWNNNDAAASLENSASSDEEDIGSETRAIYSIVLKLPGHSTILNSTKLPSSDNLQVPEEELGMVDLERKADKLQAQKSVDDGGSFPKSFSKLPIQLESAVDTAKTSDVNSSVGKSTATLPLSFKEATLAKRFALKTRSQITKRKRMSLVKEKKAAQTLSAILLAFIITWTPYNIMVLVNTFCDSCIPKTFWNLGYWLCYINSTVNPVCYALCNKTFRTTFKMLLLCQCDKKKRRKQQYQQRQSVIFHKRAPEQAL

O=C(OCC1CN2CCC1CC2)N1CCc2ccccc2[C@@H]1c1ccc(F)cc1 (some centres undefined) showed an EC50 [1] of 1990 nM.

In the case of O=C(OC1CN2CCC1CC2)N1CCc2ccccc2[C@@H]1c1ccc(OC(F)(F)F)cc1 (some centres undefined), the EC50 [1] is reported as 2600 nM.

Work on O=S(=O)(CC1CN2CCC1CC2)N1CCc2ccccc2[C@@H]1c1ccc(F)cc1 (some centres undefined) yielded an EC50 [1] of 1700 nM.

Work on CS(=O)(=O)c1ccc([C@H]2c3ccccc3CCN2C(=O)OC2CN3CCC2CC3)cc1 (some centres undefined) yielded an EC50 [1] greater than 10000 nM.

O=S(=O)(NC1CN2CCC1CC2)N1CCc2ccccc2[C@@H]1c1ccc(F)cc1 (some centres undefined) showed an EC50 [1] greater than 10000 nM.

Compound O=C(OC1CN2CCC1CC2)N1CCc2ccccc2[C@@H]1c1ccc(F)cc1 (some centres undefined) has a fraction unbound [2] of 0.086, a fraction unbound [3] of 0.008 and a half-life [4] of 4.1 min. The Papp A→B [5] was 7.59 ×10⁻⁶ cm/s, the CLH [6] was 0.0698 mL/min/kg and the fraction unbound [7] was 0.02. For the same compound, the clearance [8] was 44.2 mL/min/kg, the half-life [9] was 1.9 min and the solubility [10] was 1990 µM (≈ 757 µg/mL). It also gave a Vd [11] of 4.91 L/kg, a Vd [12] of 4.65 L/kg and a CLH [13] of 0.023 mL/min/kg. For the same compound, the half-life [14] was 10 min, the IC50 [15] was 17000 nM and the Kp uu at 8 h [16] was 1.08. For the same compound, the fraction unbound [17] was 0.008, the clearance [18] was 198 mL/min/kg and the EC50 [1] was 257 nM. For the same compound, the fraction unbound [19] was 0.06, the bioavailability [20] was 64% and the half-life [21] was 2.1 min. For the same compound, the bioavailability [22] was 16%, the half-life [23] was 29 min and the Cmax [24] was 37 nM. For the same compound, the half-life [25] was greater than 240 min, the half-life [26] was 2.1 min and the Cmax [27] was 28 nM. The Kp uu at 8 h [28] was 0.26.

O=C(OC1CN2CCC1CC2)N1CCc2ccccc2[C@@H]1c1cccc(F)c1 (some centres undefined) showed an EC50 [1] of 3550 nM.

O=C(OC1CN2CCC1CC2)N1CCc2ccccc2[C@@H]1c1cccc(F)c1F (some centres undefined) showed an EC50 [1] of 1110 nM.

For O=C(NC1CN2CCC1CC2)N1CCc2ccccc2[C@@H]1c1ccc(F)cc1 (some centres undefined), the Papp A→B [5] was 0.95 ×10⁻⁶ cm/s, the solubility [10] was 5960 µM (≈ 2260 µg/mL) and the IC50 [15] was 10000 nM. The EC50 [1] was 265 nM.

Work on O=C(OCCC12CCN(CC1)CC2)N1CCc2ccccc2[C@@H]1c1ccc(F)cc1 yielded an EC50 [1] greater than 10000 nM.

With O=C(NC1CN2CCC1CC2)C(=O)N1CCc2ccccc2[C@@H]1c1ccc(F)cc1 (some centres undefined) the EC50 [1] was 1610 nM.

O=C(COC1CN2CCC1CC2)N1CCc2ccccc2[C@@H]1c1ccc(F)cc1 (some centres undefined) gave an EC50 [1] of 811 nM.

With O=C(OC1CN2CCC1CC2)N1CCc2ccccc2[C@@H]1c1ccc(Cl)cc1 (some centres undefined) the IC50 [15] was 1480 nM and the EC50 [1] was 339 nM.

Compound O=C(OC1CN2CCC1CC2)N1CCc2ccccc2[C@@H]1c1ccc(OC2CC2)cc1 (some centres undefined) has an EC50 [1] greater than 10000 nM.

For CC1(C)C(OC(=O)N2CCc3ccccc3[C@@H]2c2ccc(F)cc2)C2CCN1CC2 (some centres undefined), the EC50 [1] was 574 nM.

O=C(OC1CN2CCC1CC2)N1CCc2ccccc2[C@@H]1c1ccc(F)c(F)c1 (some centres undefined) showed an IC50 [15] of 10000 nM and an EC50 [1] of 2030 nM.

In the case of CN(C(=O)N1CCc2ccccc2[C@@H]1c1ccc(F)cc1)C1CN2CCC1CC2 (some centres undefined), the EC50 [1] is reported as 1030 nM.

C[C@]1(c2ccc(F)cc2)c2ccccc2CCN1C(=O)OC1CN2CCC1CC2 (some centres undefined) showed an EC50 [1] of 3460 nM.

Fc1ccc([C@@H]2c3ccccc3CCN2CCC2CN3CCC2CC3)cc1 (some centres undefined) showed an EC50 [1] greater than 10000 nM.

O=C(OCC12CCN(CC1)CC2)N1CCc2ccccc2[C@H]1c1ccc(F)cc1 gave a fraction unbound [2] of 0.096, a fraction unbound [3] of 0.008 and a Cmax [29] of 32 nM. For the same compound, the half-life [4] was 2.9 min, the Papp A→B [5] was 3.01 ×10⁻⁶ cm/s and the CLH [6] was 0.0318 mL/min/kg. The fraction unbound [7] was 0.048, the clearance [8] was 51.8 mL/min/kg and the half-life [9] was 2.2 min. The solubility [10] was 2670 µM (≈ 1050 µg/mL), the Vd [11] was 7.23 L/kg and the Vd [12] was 16.2 L/kg. The Vd [30] was 9.6 L/kg, the CLH [13] was 0.0397 mL/min/kg and the half-life [14] was 22 min. The Kp uu at 8 h [16] was 0.09, the fraction unbound [17] was 0.007 and the Kp uu at 8 h [31] was 0.33. For the same compound, the clearance [18] was 102 mL/min/kg, the bioavailability [32] was 42% and the EC50 [1] was 146 nM. For the same compound, the fraction unbound [19] was 0.086, the bioavailability [20] was 41% and the half-life [21] was 2.2 min. It also gave a clearance [33] of 20.7 mL/min/kg, a bioavailability [22] of 16% and a half-life [23] of 17 min. It also gave a Cmax [24] of 17 nM, a half-life [25] of 198 min and a half-life [26] of 5.2 min. The half-life [34] was 6.8 min, the Cmax [27] was 30 nM and the half-life [35] was 6.4 min. For the same compound, the Kp uu at 8 h [28] was 0.4 and the fraction unbound [36] was 0.176.

For O=C(OC1CN2CCC1CC2)N1CCc2ccccc2[C@H]1c1ccc(F)cc1 (some centres undefined), the EC50 [1] was greater than 10000 nM.

With COc1ccc([C@H]2c3ccccc3CCN2C(=O)OC2CN3CCC2CC3)cc1 (some centres undefined) the EC50 [1] was 2870 nM.

O=C(CC1CN2CCC1CC2)N1CCc2ccccc2[C@@H]1c1ccc(F)cc1 (some centres undefined) gave a Papp A→B [5] of 2.68 ×10⁻⁶ cm/s, an IC50 [15] of 30000 nM and an EC50 [1] of 222 nM.

Work on O=C(OC1CN2CCC1CC2)N1CCc2ccccc2[C@@H]1c1ccc(F)cc1F (some centres undefined) yielded an IC50 [15] of 9400 nM and an EC50 [1] of 247 nM.

O=C(C(O)C1CN2CCC1CC2)N1CCc2ccccc2[C@@H]1c1ccc(F)cc1 (some centres undefined) gave an EC50 [1] of 895 nM.

O=C(O[C@@H]1CN2CCC1CC2)N1CCc2ccccc2[C@@H]1c1ccccc1 gave an IC50 [15] of 733 nM and an EC50 [1] of 1830 nM.

Work on O=C(OC1CN2CCC1(F)CC2)N1CCc2ccccc2C1c1ccc(F)cc1 (single isomer, unassigned) yielded an EC50 [1] of 1250 nM.

For O=C(O[C@H]1CN2CCC1CC2)N1CCc2ccccc2[C@@H]1c1ccccc1 [SOLIFENACIN], the IC50 [15] was 24 nM and the EC50 [1] was 1300 nM.
